GI50 and TGI data for 7 compounds are collected here from PubChem BioAssay (NCI).

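Exposure lasted 48 hours, with cells grown in 96-well plates and compounds tested at five concentrations. At the GI50, growth is halved. TGI: total growth inhibition.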

Test systems include A498 renal; DU-145 prostate; HT29 colon; M14 melanoma; MDA-MB-231 breast; MDA-MB-435; NCI-H226 lung; T-47D breast; UACC-257 melanoma; UO-31 renal.
What all share (assay): DTP human tumour cell line panel, 48 h

In general, GI50 refers to the concentration giving 50% growth inhibition. In general, TGI refers to the concentration giving total growth inhibition. In the case of `COc1cc(-c2cn(C)c(=O)c(C)c2C)cc(OC)c1CN1CC[C@H](N2CCN(c3ccc(N[C@H]4CCC(=O)NC4=O)cc3F)CC2)C(F)(F)C1`, the GI50 is 13.8 µM in the assay on A498 renal; 27.6 µM with DU-145 prostate; 11.4 µM in the assay with HT29 colon; 12.2 µM in the assay on M14 melanoma; 11.5 µM in the assay on MDA-MB-231 breast; 13.8 µM in the assay on MDA-MB-435. Besides, the GI50 was 13.7 µM in the assay on NCI-H226 lung, 14.3 µM in the assay with T-47D breast, 10.5 µM with UACC-257 melanoma and 4.56 µM in the assay on UO-31 renal. The TGI with A498 renal is 27.2 µM; in the assay with DU-145 prostate, above 100 µM; in the assay on HT29 colon, 27.2 µM; in the assay with M14 melanoma, 27.7 µM; with MDA-MB-231 breast, 25.4 µM; in the assay on MDA-MB-435, 30 µM. Further, the TGI came to 29.1 µM with NCI-H226 lung, 49.3 µM with T-47D breast, 24.2 µM with UACC-257 melanoma and 17.6 µM with UO-31 renal.
Take `CNC(=O)c1cc(Oc2ccc(NC(=O)Nc3ccc(Cl)c(OC(F)(F)F)c3)c(F)c2)ccn1`: the GI50 was 2.66 µM in the assay with A498 renal; 4.24 µM in the assay on DU-145 prostate; 1.17 µM with HT29 colon; 1.02 µM in the assay on M14 melanoma; 1.26 µM with MDA-MB-231 breast; 1.29 µM with MDA-MB-435. Besides, the GI50 was 2.5 µM in the assay on NCI-H226 lung, 0.814 µM in the assay on T-47D breast, 1.19 µM in the assay on UACC-257 melanoma and 1.07 µM in the assay on UO-31 renal. Also, the TGI in the assay with A498 renal was 11.4 µM; in the assay on DU-145 prostate, above 33.2 µM; in the assay with HT29 colon it was 13.5 µM; with M14 melanoma, 5.38 µM; with MDA-MB-231 breast it was 8.74 µM; in the assay on MDA-MB-435, 10.9 µM. For the same compound, the TGI is 21.4 µM in the assay with NCI-H226 lung, 7.27 µM in the assay with T-47D breast, 6.54 µM in the assay with UACC-257 melanoma and 13.3 µM in the assay with UO-31 renal.
As for `COc1ccc(C2C(C#N)=C(N)OC3=C2CCCc2ccc(F)cc23)cc1OC` (stereo not given), the GI50 in the assay on A498 renal was 4.22 µM; in the assay on DU-145 prostate, 19.1 µM; in the assay on HT29 colon it was 29.6 µM; with M14 melanoma it was 19.9 µM; in the assay on MDA-MB-231 breast, 17.3 µM; with MDA-MB-435, 12.9 µM. In addition, the GI50 with NCI-H226 lung is 19.6 µM; in the assay on T-47D breast, 46.1 µM; with UACC-257 melanoma, 29.6 µM; with UO-31 renal, 16.5 µM. Besides, the TGI in the assay with A498 renal was 21.9 µM; in the assay with DU-145 prostate it was 36.9 µM; in the assay on HT29 colon, above 72.4 µM; with M14 melanoma, 41.8 µM; in the assay with MDA-MB-231 breast, 45.5 µM; in the assay on MDA-MB-435, above 53.3 µM. Also, the TGI with NCI-H226 lung is 43.9 µM; in the assay on T-47D breast it was 98.3 µM; in the assay on UACC-257 melanoma it was above 67.8 µM; in the assay on UO-31 renal, 31.8 µM.
On to `CNc1nc(NC2CCCC2)nc(Sc2ccc(OC)cc2)n1`, for which the GI50 in the assay with A498 renal, in the assay with DU-145 prostate, with HT29 colon, in the assay on M14 melanoma, in the assay with MDA-MB-231 breast and in the assay with MDA-MB-435 was above 10 µM each time. Besides, the GI50 in the assay with NCI-H226 lung, in the assay with T-47D breast, in the assay with UACC-257 melanoma and in the assay on UO-31 renal was above 10 µM throughout. The TGI in the assay with A498 renal, with DU-145 prostate, with HT29 colon, in the assay on M14 melanoma, in the assay on MDA-MB-231 breast and with MDA-MB-435 was above 10 µM in each case. For the same compound, the TGI with NCI-H226 lung, with T-47D breast, in the assay on UACC-257 melanoma and with UO-31 renal was above 10 µM in each case.
As for `CCCSc1cc(Cl)nc(N)n1`, the GI50 in the assay with A498 renal, in the assay on DU-145 prostate, with HT29 colon, with M14 melanoma, in the assay with MDA-MB-231 breast and in the assay with MDA-MB-435 was above 100 µM throughout. In addition, the GI50 in the assay on NCI-H226 lung is above 100 µM; with T-47D breast it was above 100 µM; with UACC-257 melanoma, above 100 µM; in the assay on UO-31 renal, 71.5 µM. Further, the TGI in the assay on A498 renal, in the assay on DU-145 prostate, in the assay on HT29 colon, in the assay on M14 melanoma, with MDA-MB-231 breast and in the assay with MDA-MB-435 was above 100 µM in each case. Moreover, the TGI with NCI-H226 lung, with T-47D breast, in the assay on UACC-257 melanoma and with UO-31 renal was above 100 µM throughout.
Turning to `C=CC(=O)N1CCN(c2ncnc3c(F)c(-c4c(O)cccc4F)c(Cl)cc23)CC1`, the GI50 was 5.45 µM in the assay on A498 renal; 10.6 µM in the assay on DU-145 prostate; 25 µM with HT29 colon; 12.6 µM with M14 melanoma; 14.3 µM in the assay on MDA-MB-231 breast; 10.3 µM in the assay with MDA-MB-435. For the same compound, the GI50 was 17 µM in the assay on NCI-H226 lung, 10.2 µM in the assay on T-47D breast, 14.4 µM in the assay with UACC-257 melanoma and 14.7 µM in the assay with UO-31 renal. Further, the TGI stood at 19.1 µM in the assay with A498 renal; 23.6 µM in the assay on DU-145 prostate; 77.7 µM with HT29 colon; 28.9 µM with M14 melanoma; 35.9 µM with MDA-MB-231 breast; 23.9 µM in the assay on MDA-MB-435. The TGI with NCI-H226 lung is 46.2 µM; in the assay on T-47D breast, 42.9 µM; with UACC-257 melanoma, 30.4 µM; in the assay on UO-31 renal, 29 µM.
Consider `C[C@H]1CCC/C=C/[C@@H]2C[C@H](N)C[C@H]2[C@H](O)/C=C/C(=O)O1`, for which the GI50 with A498 renal is 67.9 µM; in the assay with DU-145 prostate, above 100 µM; in the assay with HT29 colon, above 100 µM; in the assay on M14 melanoma, above 100 µM; in the assay with MDA-MB-231 breast, above 100 µM; in the assay on MDA-MB-435, above 100 µM. Further, the GI50 with NCI-H226 lung, in the assay with T-47D breast, in the assay on UACC-257 melanoma and in the assay with UO-31 renal was above 100 µM each time. Also, the TGI in the assay with A498 renal, in the assay on DU-145 prostate, in the assay on HT29 colon, in the assay on M14 melanoma, in the assay with MDA-MB-231 breast and in the assay on MDA-MB-435 was above 100 µM in each case. Moreover, the TGI in the assay with NCI-H226 lung, in the assay on T-47D breast, with UACC-257 melanoma and in the assay with UO-31 renal was above 100 µM in each case.
